Measurements taken from paper PMC6120666 (The EMBO Journal, 2018).
Blank lines part the entries; values can stand above or below the molecule they belong to.

Tests used:
U2OS/NOD2 cells = experiment: Intracellular flow cytometry of CXCL8 after L18-MDP; type: cell-based, human; details: U2OS/NOD2 cells, L18-MDP 200 ng/ml, 4 h
Description: Purified material and lysates were analyzed by immunoblotting. […] Numbering below schematic refers to amino acid residues in human RIPK2 and indicate domain boundaries. […] Data information: Data in (A, B, D, H) represent the mean ± SEM of 2–4 independent experiments, each performed in duplicate. […] Two‐way ANOVA was used to determine statistical significance. See also Fig EV1.Source data are available online for this figure.
Dark gray represents areas occupied by RIPK2; white areas indicate empty spaces in CSLP binding pocket. […] Dotted black box indicates region shown for models with CSLP37 and CSLP43. • Molecular docking model of RIPK2 kinase domain in complex with CSLP43 (green) based on RIPK2/CSLP18 structure from (D). […] Two‐way ANOVA was used to determine statistical significance. See also Fig EV2.
GST-BIR2-XIAP as indicated. Intensity quantification of SPOTs was performed using ImageJ software
Dual luciferase reporter assay
Intracellular flow cytometry of CXCL8
for cell death) or vehicle for 24h. Viability was determined using the CellTiter-Glo® luminescent cell
together with Transfection Carrier DNA (Promega).
After addition of Nano-Glo

[1] = test system: RIPK2 ubiquitination in U2OS/NOD2 and THP-1 cells; experiment: Purification of Ub-conjugates (TUBE pulldown), RIPK2 ubiquitination; type: cell-based, human; details: U2OS/NOD2 or THP-1 cells, L18-MDP 200 ng/ml, 1 h
Description: For co‐immunoprecipitation of HA‐XIAP with RIPK2, transfected and treated cells were lysed in TBS buffer containing 0.5% NP‐40, cOmplete and PhosSTOP inhibitors (Roche) and the lysate was cleared by centrifugation. The lysates were incubated with anti‐HA‐agarose overnight, washed 3× with lysis buffer, and analyzed by immunoblotting. For GST pulldown experiments, U2OS/NOD2 cells were lysed in TBS lysis buffer containing 0.5% NP‐40, cOmplete and PhosSTOP inhibitors (Roche). Cleared lysates were pretreated with kinase inhibitors or DMSO and incubated with GST‐XIAP‐BIR2 bound to Glutathione Sepharose at 4°C overnight. Bound material was washed 3× with lysis buffer or PBS, eluted with 15 mM Glutathione in PBS, and analyzed by immunoblotting. […] The bound material was eluted and analyzed as described above. […]
PBS, eluted with 15 mM Glutathione in PBS and analyzed by immunoblotting. […]

recombinant RIPK2 kinase = target: T1, recombinant RIPK2 kinase (Homo sapiens, UniProt O43353); experiment: RIPK2 ADPGlo in vitro kinase assay; type: biochemical; details: average ± SD of at least three titrations, read-out: IC50, In vitro kinase, RIPK2 ADPGIo
T1 construct: made in house
Description: The BIR2 domains of XIAP and cIAP1 were cloned into the pGEX‐6P1 vector and were expressed in E. coli (BL21) cells as a fusion protein with N‐terminal 6xHis (XIAP BIR2 only) and GST tags. Protein expression was induced with IPTG, and cells were lysed using BugBuster protein extraction reagent (#70921, Merck Millipore) according to manufacturer's instructions. Proteins were purified with the FPLC protein purification system ÄKTA PrimePlus (GE Healthcare Life Sciences) using HisTrap FF column purification followed by gel filtration (HiLoad 26/600 Superdex 75 pg (GE Healthcare Life Sciences)). Collected fractions were stored at −80°C and used for probing of peptide array membranes. Expression and purification of recombinant RIPK1‐3 was performed as previously described (Canning et al, 2015; Najjar et al, 2015). RIPK1‐3 ADPGlo kinase assays using 20 ng/well protein were performed for 2 h at room temperature also as previously described (Canning et al, 2015; Najjar et al, 2015).

NOD2/HEKBlue cells = experiment: hNOD2-HEKBlue L18-MDP-induced NF-κB reporter assay; type: cell-based, human; details: Homo sapiens, HEK-Blue; L18-MDP-induced NF-κB reporter; average ± SD of at least three titrations
Description: For HEKBlue assay, cells were seeded into clear 96‐well plates at 7.5 × 10^3 cells/well and allowed to attach for 48 h. On the day of the experiment, media was changed to 100 μl of HEKBlue detection media (InvivoGen). Inhibitors were diluted and added in 0.5 μl DMSO 15 min prior to the addition of 1 ng/ml L18‐MDP (InvivoGen). After 8–9 h, absorbance at 620 nm was measured using Victor3V plate reader (Perkin Elmer, Waltham, MA). Values of media‐only wells were subtracted and %inhibition for each compound concentration relative to the DMSO/L18‐MDP‐treated controls was calculated. Inhibition values ± SD were fitted by non‐linear regression using Prism software (GraphPad Software, La Jolla, CA) to calculate IC50 values. For THP1Blue assay, 1 × 10^5 cells were seeded in 200 μl of RPMI media in 96‐well plates and treated with inhibitors in 0.5 μl DMSO for 15 min prior to the addition of 10 μg/ml MDP, 10 ng/ml Pam3CSK4, 10 ng/ml E. coli LPS, or 1 × 10^7 cells/ml heat‐killed L. monocytogenes (InvivoGen) for 24 h. After induction, 20 μl of media was mixed with 180 μl of QUANTI‐Blue reagent (InvivoGen) and incubated at 37°C for 3–4 h, followed by absorbance measurement at 620 nm. IC50 values were calculated as described for HEKBlue assay.
Cayman Chemical Company, Ann Arbor, MI), GSK583 (#HY-100339, MedChem Express, South Brunswick, NJ), WEHI-345 (MedKoo Biosciences, Morrisville, NC), Compound A (CpA, a kind gift from TetraLogic Pharmaceuticals, Malvern, PA). Generation of the CSLP compound series is described in Suebsuwong et al. 2018 (manuscript in preparation). hNOD2-HEKBlue and THP1Blue assays
For HEKBlue assay, cells were seeded into clear 96 well plates at 7.5x10^3 cells/well and allowed to attach for 48 h. On the day of the experiment, media was changed to 100 μl of HEKBlue detection media (InvivoGen). Inhibitors were diluted and added in 0.5 μl DMSO 15 min prior to the addition of 1 ng/ml L18-MDP (InvivoGen). After 8-9 h, absorbance at 620 nm was measured using Victor3V plate reader (Perkin Elmer, Waltham, MA). Values of media-only wells were subtracted and %inhibition for each compound concentration relative to the DMSO/L18-MDP-treated controls were calculated.
Inhibition values + StDev were fitted by non-linear regression using Prism software (GraphPad Software, La Jolla, CA) to calculate IC50 values. For THP1Blue assay, 1x10^5 cells were seeded in 200 μl of RPMI media in 96 well plates and treated with inhibitors in 0.5 μl DMSO 15 min prior to the addition of 10 µg/ml MDP, 10 ng/ml Pam3CSK4, 10 ng/ml E. coli LPS or 1x10^7 cells/ml heat-killed L. monocytogenes (InvivoGen) for 24 h. After induction, 20 μl of media was mixed with 180 μl of QUANTI-Blue reagent (InvivoGen) and incubated at 37 °C for 3-4 h, followed by absorbance measurement at 620 nm. IC50 values were calculated as described for HEKBlue assay. […]

NanoLuc-RIPK2 [2] = target: T2, NanoLuc-RIPK2 (Homo sapiens, UniProt O43353); experiment: nanoBRET cellular RIPK2 target engagement assay in HEKBlue cells; details: average ± SD of at least three titrations, read-out: IC50, Cellular activity, nanoBRET RIPK2 binding
T2 construct: host or cells: hNOD2-HEKBlue cells

NanoLuc-RIPK2 [3] = target: T2, NanoLuc-RIPK2; experiment: nanoBRET cellular RIPK2 residence time assay in HEKBlue cells; type: binding; details: t1/2 for probe to engage RIPK2 after washout of inhibitor
His6‐GST‐XIAP‐BIR2 D214S = target: T3, His6‐GST‐XIAP‐BIR2 D214S (UniProt P98170 124-242, D214S); experiment: peptide or protein array; SPOT assay: selected RIPK2 peptides and their Ala-/Leu-scan variants spotted in triplicate on cellulose, probed with 6xHis-GST-BIR2 of XIAP (WT or D214S), detected with anti-His-HRP, spots quantified with ImageJ; details: both partners purified
T3 construct: not restated for the mutant; also called D214S BIR2 domain; D214S mutant; source: E. coli (BL21), purified (HisTrap FF, gel filtration); not shown: His6, N-terminal, kept; GST, N-terminal, kept

Molecule: CC(C)(C)S(=O)(=O)c1ccc2nccc(Nc3n[nH]c4ccc(F)cc34)c2c1 [GSK583, 6‐(tert‐Butylsulfonyl)‐N‐(5‐fluoro‐1H‐indazol‐3‐yl)quinolin‐4‐amine, reference compound]
- L18-MDP-induced CXCL8 production (U2OS/NOD2 cells): inhibited
- RIPK2 ubiquitination after L18-MDP [1]: antagonized

Molecule: CCCS(=O)(=O)Nc1cc(-c2cc(-c3ccc(N4CCNCC4)cc3)cnc2C)cc(F)c1OC [CSLP53]
- IC50 (recombinant RIPK2 kinase): 1410 nM
- IC50 (NOD2/HEKBlue cells): 2560 nM
- IC50 (NanoLuc-RIPK2 [2]): > 10000 nM

B1: RIPK2 peptide A13 (residues 28‐42) (peptide, UniProt O43353 28-42, looked up)
peptide: ASGTVSSARHADWRV
notes: 15-mer of human RIPK2, residues 28-42 (β2 and the β2‐β3 loop of the N‐lobe of the kinase domain); also called A13 peptide
- binding result (His6‐GST‐XIAP‐BIR2 D214S): binds

Molecule: ADFGLSKWRMMSLSQ (peptide, UniProt O43353 163-177, looked up, 15-mer of human RIPK2, residues 163-177) [RIPK2 peptide E6 (residues 163–177)]
- binding result (His6‐GST‐XIAP‐BIR2 D214S): binds

Second part, led by results:

- IC50 (recombinant RIPK2 kinase): 39.1 ± 1.5 nM
- IC50 (NanoLuc-RIPK2 [2]): 167 ± 19 nM
- residence time (NanoLuc-RIPK2 [3]): 106 min
Molecule: CCCS(=O)(=O)Nc1cc(F)cc(-c2cc(-c3ccc(N4CCNCC4)cc3)cnc2N)c1 [CSLP38]
- IC50 (NOD2/HEKBlue cells): 740 ± 60.7 nM

- IC50 (recombinant RIPK2 kinase): 31.6 ± 8.7 nM
- IC50 (NanoLuc-RIPK2 [2]): 578 ± 34.1 nM
- residence time (NanoLuc-RIPK2 [3]): 66.6 min
Molecule: CCCS(=O)(=O)Nc1cc(-c2cc(-c3ccc(N4CCNCC4)cc3)cnc2N)ccc1OC [CSLP18]
- IC50 (NOD2/HEKBlue cells): 476 ± 96.7 nM
